Measured values published in patent publication US20240366599A1, “HUMAN EFFICACIOUS DOSE AND DOSAGE SCHEDULE OF SPR720” (SPERO THERAPEUTICS, INC., priority 2021, published 2024).

Tests used:
Type in all cases: in vivo, human
[1] = Single ascending dose (SAD) study: pharmacokinetics of SPR719 after oral SPR720; settings: SPR720 1000 mg, fed vs fasted; considered non-clinically significant
Experimental: (§1) The following study was conducted in healthy volunteers to evaluate the safety, tolerability, and pharmacokinetics of SPR720/SPR719. The study included 7 SAD cohorts, of which one was a food effect cohort. SPR720 or placebo (n=8/cohort, 3:1 randomization) were administered to subjects at doses of 100 to 2000 mg in the fasted or fed state. The cohorts administered SPR720 in the fed state were administered 1000 mg or 500 mg (healthy elderly cohort) SPR720. A schematic of the study design appears in FIG. 1.

[2] = Multiple ascending dose (MAD) study: safety and tolerability
Experimental: The multiple ascending dose study utilized 5 cohorts of 8 subjects. Three cohorts were administered a total daily dose of 500 mg to 1500 mg in the fasted state for 7 days. Two cohorts were administered a total daily dose of 500 mg or 1000 mg in the fed state for 14 days. Safety was also monitored throughout the study. […] This conclusion was further supported by stable SPR719 trough concentrations by Day 7 (data not shown). Mean plasma concentration/time curves are shown for the MAD cohorts at days 1 (FIG. 3A), 7 (FIG. 3B), and 14 (FIG. 3C). 2.

[3] = Single ascending dose (SAD) study: safety and tolerability
Experimental: as §1

[4] = MAD Cohort 1, 500 mg 7 days, fasted, N=6
[5] = MAD Cohort 2, 1000 mg 7 days, fasted, N=6
[6] = MAD Cohort 3, 750 mg q12 h 7 days, fasted, N=6
[7] = MAD Cohort 4, 500 mg 14 days, fed, N=6
[8] = MAD Cohort 5, 1000 mg 14 days, fed, N=6
[9] = SAD Cohort 4, 1000 mg Fasted, N=6

With `CCNC(=O)Nc1nc2cc(-c3cnc(C(C)(C)OP(=O)(O)O)cn3)c(F)c([C@H]3CCCO3)c2[nH]1` [SPR720, fobrepodacin] the “Food effect: plasma exposure after high fat meal relative to fasted state” value [1] was “no significant food effect”, the “Subjects reporting TEAEs” value ([2]; MAD 1000 mg cohorts) was 50.0% and the “Subjects reporting TEAEs” value ([2]; MAD 1500 mg (750 mg q12h) cohort) was 66.7%. The “Incidence of TEAE: Abdominal Pain” value [2, 4] was 0 Number (%) of Subjects, the “Incidence of TEAE: Diarrhea (first line)” value [2, 4] was 2 (33.3) Number (%) of Subjects and the “Incidence of TEAE: Diarrhea (second line)” value (“Incidence … (second line)” below) [2, 4] was 0 Number (%) of Subjects. For the same compound, the “Incidence of TEAE: Headache” value [2, 4] was 2 (33.3) Number (%) of Subjects, the “Incidence of TEAE: Nausea” value [2, 4] was 2 (33.3) Number (%) of Subjects and the “Incidence of TEAE: Vomiting” value [2, 4] was 1 (16.7) Number (%) of Subjects. For the same compound, the “Incidence of TEAE: Abdominal Pain” value [2, 5] was 1 (16.7) Number (%) of Subjects, the “Incidence of TEAE: Diarrhea (first line)” value [2, 5] was 4 (66.7) Number (%) of Subjects and the “Incidence … (second line)” value [2, 5] was 2 (33.3) Number (%) of Subjects. For the same compound, the “Incidence of TEAE: Headache” value [2, 5] was 3 (50.0) Number (%) of Subjects, the “Incidence of TEAE: Nausea” value [2, 5] was 1 (16.7) Number (%) of Subjects and the “Incidence of TEAE: Vomiting” value [2, 5] was 2 (33.3) Number (%) of Subjects. For the same compound, the “Incidence of TEAE: Abdominal Pain” value [2, 6] was 0 Number (%) of Subjects, the “Incidence of TEAE: Diarrhea (first line)” value [2, 6] was 4 (66.7) Number (%) of Subjects and the “Incidence … (second line)” value [2, 6] was 1 (16.7) Number (%) of Subjects. For the same compound, the “Incidence of TEAE: Headache” value [2, 6] was 2 (33.3) Number (%) of Subjects, the “Incidence of TEAE: Nausea” value [2, 6] was 3 (50.0) Number (%) of Subjects and the “Incidence of TEAE: Vomiting” value [2, 6] was 1 (16.7) Number (%) of Subjects. For the same compound, the “Incidence of TEAE: Abdominal Pain” value [2, 7] was 0 Number (%) of Subjects, the “Incidence of TEAE: Diarrhea (first line)” value [2, 7] was 0 Number (%) of Subjects and the “Incidence … (second line)” value [2, 7] was 0 Number (%) of Subjects. For the same compound, the “Incidence of TEAE: Headache” value [2, 7] was 1 (16.7) Number (%) of Subjects, the “Incidence of TEAE: Nausea” value [2, 7] was 0 Number (%) of Subjects and the “Incidence of TEAE: Vomiting” value [2, 7] was 0 Number (%) of Subjects. For the same compound, the “Incidence of TEAE: Abdominal Pain” value [2, 8] was 1 (16.7) Number (%) of Subjects, the “Incidence of TEAE: Diarrhea (first line)” value [2, 8] was 3 (50.0) Number (%) of Subjects and the “Incidence … (second line)” value [2, 8] was 0 Number (%) of Subjects. For the same compound, the “Incidence of TEAE: Headache” value [2, 8] was 0 Number (%) of Subjects, the “Incidence of TEAE: Nausea” value [2, 8] was 1 (16.7) Number (%) of Subjects and the “Incidence of TEAE: Vomiting” value [2, 8] was 0 Number (%) of Subjects. For the same compound, the “Subjects who discontinued study drug due to increased pancreatic enzymes” value ([2]; MAD cohort 3 (750 mg q12h), asymptomatic, resolved without interventional treatment) was “One”, the “Subjects reporting TEAEs” value ([2]; MAD overall, 18 of 30 subjects who received SPR720) was 60.0% and the “Total number of TEAEs reported” value ([2]; MAD overall, 30 subjects) was 101. For the same compound, the Serious adverse events ([2]; MAD study) was “No serious adverse events”, the “Severity of TEAEs” value ([2]; MAD, all TEAEs) was “mild or moderate” and the “Incidence of TEAE: Abdominal Pain” value ([2]; Overall MAD SPR720, N=30) was 2 (6.7) Number (%) of Subjects. The “Incidence of TEAE: Diarrhea (first line)” value ([2]; Overall MAD SPR720, N=30) was 13 (42.3) Number (%) of Subjects, the “Incidence … (second line)” value ([2]; Overall MAD SPR720, N=30) was 3 (10.0) Number (%) of Subjects and the “Incidence of TEAE: Headache” value ([2]; Overall MAD SPR720, N=30) was 8 (26.7) Number (%) of Subjects. For the same compound, the “Incidence of TEAE: Nausea” value ([2]; Overall MAD SPR720, N=30) was 7 (23.3) Number (%) of Subjects, the “Incidence of TEAE: Vomiting” value ([2]; Overall MAD SPR720, N=30) was 4 (13.3) Number (%) of Subjects and the “Cases of Hy's Law” value ([2]; over 14 days of dosing) was “no cases”. The “Elevations in ALT” value ([2]; over 14 days of dosing, slight, asymptomatic and reversible) was less than 3 ×ULN, the Tolerability ([2]; repeat daily oral doses up to 1000 mg over maximum duration of 14 days) was “well-tolerated” and the “Incidence of TEAE: Diarrhea” value ([3]; SAD 500 mg Elderly, N=6) was 0 Number (%) of Subjects. The “Incidence of TEAE: Headache” value ([3]; SAD 500 mg Elderly, N=6) was 0 Number (%) of Subjects, the “Incidence of TEAE: Nausea” value ([3]; SAD 500 mg Elderly, N=6) was 0 Number (%) of Subjects and the “Incidence of TEAE: Vomiting” value ([3]; SAD 500 mg Elderly, N=6) was 0 Number (%) of Subjects. The “Subjects reporting TEAEs” value ([3]; SAD 1500 mg cohort) was 66.7%, the “Subjects reporting TEAEs” value ([3]; SAD 2000 mg cohort) was 100% and the “Incidence of TEAE: Diarrhea” value ([3]; SAD Cohort 1, 100 mg, N=6) was 0 Number (%) of Subjects. The “Incidence of TEAE: Headache” value ([3]; SAD Cohort 1, 100 mg, N=6) was 0 Number (%) of Subjects, the “Incidence of TEAE: Nausea” value ([3]; SAD Cohort 1, 100 mg, N=6) was 0 Number (%) of Subjects and the “Incidence of TEAE: Vomiting” value ([3]; SAD Cohort 1, 100 mg, N=6) was 0 Number (%) of Subjects. The “Incidence of TEAE: Diarrhea” value ([3]; SAD Cohort 2, 250 mg, N=6) was 0 Number (%) of Subjects, the “Incidence of TEAE: Headache” value ([3]; SAD Cohort 2, 250 mg, N=6) was 0 Number (%) of Subjects and the “Incidence of TEAE: Nausea” value ([3]; SAD Cohort 2, 250 mg, N=6) was 0 Number (%) of Subjects. The “Incidence of TEAE: Vomiting” value ([3]; SAD Cohort 2, 250 mg, N=6) was 0 Number (%) of Subjects, the “Incidence of TEAE: Diarrhea” value ([3]; SAD Cohort 3, 500 mg, N=6) was 1 (16.7) Number (%) of Subjects and the “Incidence of TEAE: Headache” value ([3]; SAD Cohort 3, 500 mg, N=6) was 0 Number (%) of Subjects. For the same compound, the “Incidence of TEAE: Nausea” value ([3]; SAD Cohort 3, 500 mg, N=6) was 0 Number (%) of Subjects, the “Incidence of TEAE: Vomiting” value ([3]; SAD Cohort 3, 500 mg, N=6) was 0 Number (%) of Subjects and the “Incidence of TEAE: Diarrhea” value [3, 9] was 0 Number (%) of Subjects. The “Incidence of TEAE: Headache” value [3, 9] was 1 (16.7) Number (%) of Subjects, the “Incidence of TEAE: Nausea” value [3, 9] was 0 Number (%) of Subjects and the “Incidence of TEAE: Vomiting” value [3, 9] was 0 Number (%) of Subjects. For the same compound, the “Incidence of TEAE: Diarrhea” value ([3]; SAD Cohort 4, 1000 mg Fed, N=6) was 0 Number (%) of Subjects, the “Incidence of TEAE: Headache” value ([3]; SAD Cohort 4, 1000 mg Fed, N=6) was 0 Number (%) of Subjects and the “Incidence of TEAE: Nausea” value ([3]; SAD Cohort 4, 1000 mg Fed, N=6) was 0 Number (%) of Subjects. The “Incidence of TEAE: Vomiting” value ([3]; SAD Cohort 4, 1000 mg Fed, N=6) was 0 Number (%) of Subjects, the “Incidence of TEAE: Diarrhea” value ([3]; SAD Cohort 5, 1500 mg, N=6) was 0 Number (%) of Subjects and the “Incidence of TEAE: Headache” value ([3]; SAD Cohort 5, 1500 mg, N=6) was 3 (50.0) Number (%) of Subjects. For the same compound, the “Incidence of TEAE: Nausea” value ([3]; SAD Cohort 5, 1500 mg, N=6) was 4 (66.7) Number (%) of Subjects, the “Incidence of TEAE: Vomiting” value ([3]; SAD Cohort 5, 1500 mg, N=6) was 3 (50.0) Number (%) of Subjects and the “Incidence of TEAE: Diarrhea” value ([3]; SAD Cohort 6, 2000 mg, N=6) was 2 (33.3) Number (%) of Subjects. The “Incidence of TEAE: Headache” value ([3]; SAD Cohort 6, 2000 mg, N=6) was 3 (50.0) Number (%) of Subjects, the “Incidence of TEAE: Nausea” value ([3]; SAD Cohort 6, 2000 mg, N=6) was 5 (83.3) Number (%) of Subjects and the “Incidence of TEAE: Vomiting” value ([3]; SAD Cohort 6, 2000 mg, N=6) was 5 (83.3) Number (%) of Subjects. For the same compound, the “Incidence of TEAE: Diarrhea” value ([3]; SAD Overall SPR720, n=42) was 3 (7.1) Number (%) of Subjects, the “Incidence of TEAE: Headache” value ([3]; SAD Overall SPR720, n=42) was 7 (16.7) Number (%) of Subjects and the “Incidence of TEAE: Nausea” value ([3]; SAD Overall SPR720, n=42) was 9 (21.4) Number (%) of Subjects. For the same compound, the “Incidence of TEAE: Vomiting” value ([3]; SAD Overall SPR720, n=42) was 8 (19.0) Number (%) of Subjects, the “Subjects reporting TEAEs” value ([3]; SAD overall, 18 of 42 subjects) was 42.9% and the “Total number of TEAEs reported” value ([3]; SAD overall, 42 subjects) was 35. For the same compound, the Serious adverse events ([3]; SAD study) was “No serious adverse events” and the “Severity of TEAEs” value ([3]; SAD, all TEAEs) was “mild or moderate”.
